Experimental data: ChEMBL document CHEMBL3638918, “Pyrazole derivatives” (2015)

Tests used:
[1] = molecular target: Trace amine-associated receptor 1 (Rattus norvegicus, UniProt Q923Y9); assay: Nonspecific binding was defined as the amount of 3-[H]-(S)-4-[(ethyl-phenyl-amino)-methyl]-4,5-dihydro-oxazol-2-ylamine bound in the presence of 10 uM unlabeled ligand. All compounds were tested at a broad range of concentrations (10 pM to 10 uM) in duplicates. The test compounds (20 ul/well) were transferred into a 96 deep well plate (TreffLab), and 180 ul of HEPES-NaOH (20 mM, pH 7.4) containing MgCl2 (10 mM) and CaCl2 (2 mM) (binding buffer), 300 ul of the radioligand 3[H](S)-4-[(ethyl-phenyl-amino)-methyl]-4,5-dihydro-oxazol-2-ylamine at a concentration of 3.3Kd in nM.; assay type: cell membranes
Sequence of Trace amine-associated receptor 1 (Rattus norvegicus, UniProt Q923Y9) (Q923Y9 whole entry): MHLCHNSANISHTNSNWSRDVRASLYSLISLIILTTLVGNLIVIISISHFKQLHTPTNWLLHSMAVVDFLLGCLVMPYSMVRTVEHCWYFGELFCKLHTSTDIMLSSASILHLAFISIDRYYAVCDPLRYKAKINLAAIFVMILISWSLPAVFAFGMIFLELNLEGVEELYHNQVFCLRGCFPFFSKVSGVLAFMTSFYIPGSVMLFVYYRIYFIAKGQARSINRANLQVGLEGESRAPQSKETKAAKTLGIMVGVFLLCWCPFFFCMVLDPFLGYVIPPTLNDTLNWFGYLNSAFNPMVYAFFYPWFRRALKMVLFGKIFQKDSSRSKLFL

[2] = molecular target: Trace amine-associated receptor 1 (Mus musculus, UniProt Q923Y8); assay: Radioligand Binding: The TAAR1 radioligand 3[H](S)-4-[(ethyl-phenyl-amino)-methyl]-4,5-dihydro-oxazol-2-ylamine (described in WO 2008/098857) was used at a concentration equal to the calculated Kd value, that was usually around 0.7 nM, resulting in the binding of approximately 0.5% of the radioligand and a specific binding representing approximately 70% of the total binding. Nonspecific binding was defined as the amount of 3[H](S)-4-[(ethyl-phenyl-amino)-methyl]-4,5-dihydro-oxazol-2-ylamine bound in the presence of 10 uM unlabeled ligand. All compounds were tested at a broad range of concentrations ([…]) in duplicates.
Sequence of Trace amine-associated receptor 1 (Mus musculus, UniProt Q923Y8) (Q923Y8 whole entry): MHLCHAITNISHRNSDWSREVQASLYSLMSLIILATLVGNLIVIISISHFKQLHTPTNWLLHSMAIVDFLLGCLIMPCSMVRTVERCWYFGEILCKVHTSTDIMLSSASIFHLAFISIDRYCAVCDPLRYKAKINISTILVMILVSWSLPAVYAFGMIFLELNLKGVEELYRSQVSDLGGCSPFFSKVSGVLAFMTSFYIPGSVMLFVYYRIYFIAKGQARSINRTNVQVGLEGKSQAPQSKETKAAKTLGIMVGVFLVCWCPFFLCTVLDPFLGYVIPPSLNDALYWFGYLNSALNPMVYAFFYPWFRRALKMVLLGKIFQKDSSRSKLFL

Q: Which results are given for COc1cccc(-c2cc(C(=O)Nc3ccc([C@H]4CNCCO4)cc3)n(C)n2)c1?
A: Ki [1]: 8.8 nM; Ki [2]: 6.4 nM
